Assay [1] deals with T1, MIF (Homo sapiens, UniProt P14174).
T1 sequence (P14174 1-115): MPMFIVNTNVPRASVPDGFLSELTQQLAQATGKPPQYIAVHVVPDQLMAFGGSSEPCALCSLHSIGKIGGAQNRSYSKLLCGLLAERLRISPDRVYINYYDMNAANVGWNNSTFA
Nature of the assay: Nuclease assay of Example 3 (MIF inhibitory activity, Table 4). The class given is biochemical. Details: (%) inhibition of MIF nuclease activity: concentration or dose not given beside the values. The settings on record: nuclease assay of Example 3. The protocol:
A rapafucin library was synthesized as described in WO2017/136708 and Guo et al. (2018) Nat. Chem. 11:254-63. The hybrid macrocyclic library consisted of 45,000 compounds in pools of 15 individual compounds. The library compounds were screened for MIF inhibitory activity using a nuclease assay as detailed in FIG. 1 and below.
Nuclease assay: Human genomic DNA (200 ng/reaction, Promega), pcDNA (200 ng/reaction) or PS^30 and its related and non-related substrates (1 μM) was incubated with wild type MIF or its variants at a final concentration of 0.25-8 μM as indicated in 10 mM Tris-HCl buffer (pH 7.0) containing 10 mM MgCl2 and 1 mM DTT or specific buffer as indicated, for 1 h (with pcDNA and small DNA substrates) or 4 h (with human genomic DNA) at 37° C. The reaction was terminated with loading buffer containing 10 mM EDTA and incubation on ice. The human genomic DNA samples were immediately separated on a 1.2% pulse field certified agarose in 0.5×TBE buffer with initial switch time of 1.5 s and a final switch time of 3.5 s for 12 h at 6 V/cm. pcDNA samples were determined by 1% agarose gel. Small DNA substrates were separated on 15% or 25% TBE-urea polyacrylamide (PAGE) gel or 20% TBE PAGE gel. Then gel was stained with 0.5 μg/ml Ethidium Bromide (EtBr) followed by electrophoretic transfer to nylon membrane. Then, Biotin-labeled DNA is further detected by chemiluminescence using Chemiluminescent Nucleic Acid Detection Module (Thermo Scientific).
Structure-activity relationship (SAR) analysis was then conducted on the compounds identified as having MIF inhibitory activity. Compounds having the structure of Formula (I) were then synthesized as shown in Example 1 and tested for MIF inhibitory activity using the nuclease assay described herein and neuronal protection via a cell death assay as detailed below.

The test system of assay [2] is HeLa cells or neuronal cells. Nature of the assay: Cell death assay of Example 3 (MNNG, alamarBlue; protection against parthanatos, Table 4). It counts as cell-based. The settings on record: 1 μM test compound, MNNG-induced cell death, alamarBlue. The protocol: Cell death assay: 200 μl of cells (HeLa cells or neuronal cells) culture (1×10^4 cells/well) were plated into the wells of a sterile 96-well cell culture plate. The cells were incubated for 18 hours at 37° C. The medium was removed and changed with 100 μl/well of 1 μM test compound. Incubate for 1 hours at 37° C. Ten μl of 500 μM MNNG (N-Methyl-N′-nitro-N-nitrosoguanidine) was added to each well. The medium was aspirated well and incubated for 15 min at 37° C. The cells were washed with the fresh medium. The medium was changed with 1 μM of test compound and incubated for 18 hours at 37° C. 10 μl/well of alamarBlue reagent was added directly to the well and incubated for 1 to 4 hours at 37° C. Fluorescence was measured using a fluorescence excitation wavelength of 560 nm and emission at 590 nm. The percentage of cell death was determined as the ratio of live to dead cells compared with the percentage of cell death in control wells to account for cell death attributed to mechanical stimulation of the cultures.

Take `COc1ccc(CC[C@H]2OC(=O)[C@@H]3CCCCN3C(=O)C(=O)C(C)(C)COC(=O)C=CCCN(C)C(=O)[C@H](Cc3ccc(F)cc3)NC(=O)[C@H](COC(C)(C)C)N(C)C(=O)C(c3ccccc3)NC(=O)CN(C)C(=O)COc3cccc2c3)cc1OC` (stereo partly drawn) [compound 40]: the “(%) inhibition of MIF nuclease activity” value in assay [1] is 37.4%. Besides, the “(%) inhibition of cell death” value in assay [2] is listed as 53.8%.

As for `COc1ccc(CC[C@H]2OC(=O)[C@@H]3CCCCN3C(=O)C(=O)C(C)(C)COC(=O)C=CCCN(C)C(=O)[C@H](CC3CCCCC3)NC(=O)[C@H](COC(C)(C)C)N(C)C(=O)C(c3ccccc3)NC(=O)CN(C)C(=O)COc3cccc2c3)cc1OC` (stereo partly drawn) [compound 42], the “(%) inhibition of MIF nuclease activity” value in assay [1] was determined as 40.8%. The “(%) inhibition of cell death” value in assay [2] worked out at 53.2%.

On to `COc1ccc(CC[C@H]2OC(=O)[C@@H]3CCCCN3C(=O)C(=O)C(C)(C)COC(=O)C=CCCN(C)C(=O)[C@H](Cc3ccc4ccccc4c3)NC(=O)[C@H](COC(C)(C)C)N(C)C(=O)C(c3ccccc3)NC(=O)CN(C)C(=O)COc3cccc2c3)cc1OC` (stereo partly drawn) [compound 43], for which, in assay [1], the “(%) inhibition of MIF nuclease activity” value amounted to 45.6%. Moreover, in assay [2], the “(%) inhibition of cell death” value came to 54.8%.

With `COc1ccc(CC[C@H]2OC(=O)[C@@H]3CCCCN3C(=O)C(=O)C(C)(C)COC(=O)C=CCCN(C)C(=O)[C@H](C(C)C)NC(=O)[C@H](COC(C)(C)C)N(C)C(=O)C(c3ccccc3)NC(=O)CN(C)C(=O)COc3cccc2c3)cc1OC` (stereo partly drawn) [compound 44], the “(%) inhibition of MIF nuclease activity” value in assay [1] came to 30.0%. Further, the “(%) inhibition of cell death” value in assay [2] came out at 52.2%.

Regarding `COc1ccc(CC[C@H]2OC(=O)[C@@H]3CCCCN3C(=O)C(=O)C(C)(C)COC(=O)C=CCCN(C)C(=O)[C@H](c3ccccc3)NC(=O)[C@H](COC(C)(C)C)N(C)C(=O)C(c3ccccc3)NC(=O)CN(C)C(=O)COc3cccc2c3)cc1OC` (stereo partly drawn) [compound 45], the “(%) inhibition of MIF nuclease activity” value in assay [1] was determined as 15.4%. For the same molecule, the “(%) inhibition of cell death” value in assay [2] came to 51.9%.

For the molecule `COc1ccc(CC[C@H]2OC(=O)[C@@H]3CCCCN3C(=O)C(=O)C(C)(C)COC(=O)C=CCCN(C)C(=O)CNC(=O)[C@H](COC(C)(C)C)N(C)C(=O)C(c3ccccc3)NC(=O)[C@H](C)N(C)C(=O)COc3cccc2c3)cc1OC` (stereo partly drawn) [compound 46], the “(%) inhibition of MIF nuclease activity” value in assay [1] was 21.7%. Moreover, the “(%) inhibition of cell death” value in assay [2] is recorded as 52.5%.

Take `COc1ccc(CC[C@H]2OC(=O)[C@@H]3CCCCN3C(=O)C(=O)C(C)(C)COC(=O)C=CCCN(C)C(=O)[C@H](C)NC(=O)[C@H](COC(C)(C)C)N(C)C(=O)C(c3ccccc3)NC(=O)[C@H](C)N(C)C(=O)COc3cccc2c3)cc1OC` (stereo partly drawn) [compound 47]: in assay [1], the “(%) inhibition of MIF nuclease activity” value was 52.3%. In addition, the “(%) inhibition of cell death” value in assay [2] is reported as 54.2%.

Take `COc1ccc(CC[C@H]2OC(=O)[C@@H]3CCCCN3C(=O)C(=O)C(C)(C)COC(=O)C=CCCN(C)C(=O)[C@@H](C)NC(=O)[C@H](COC(C)(C)C)N(C)C(=O)C(c3ccccc3)NC(=O)[C@H](C)N(C)C(=O)COc3cccc2c3)cc1OC` (stereo partly drawn) [compound 48]: the “(%) inhibition of MIF nuclease activity” value in assay [1] was found to be 61.5%. The “(%) inhibition of cell death” value in assay [2] is listed as 49.2%.

In the case of `CCC[C@@H]1NC(=O)[C@H](COC(C)(C)C)N(C)C(=O)C(c2ccccc2)NC(=O)[C@H](C)N(C)C(=O)COc2cccc(c2)[C@@H](CCc2ccc(OC)c(OC)c2)OC(=O)[C@@H]2CCCCN2C(=O)C(=O)C(C)(C)COC(=O)C=CCCN(C)C1=O` (stereo partly drawn) [compound 49], in assay [1], the “(%) inhibition of MIF nuclease activity” value is on record as 14.7%. Besides, in assay [2], the “(%) inhibition of cell death” value stood at 60.0%.

Turning to `COCC[C@@H]1NC(=O)[C@H](COC(C)(C)C)N(C)C(=O)C(c2ccccc2)NC(=O)[C@H](C)N(C)C(=O)COc2cccc(c2)[C@@H](CCc2ccc(OC)c(OC)c2)OC(=O)[C@@H]2CCCCN2C(=O)C(=O)C(C)(C)COC(=O)C=CCCN(C)C1=O` (stereo partly drawn) [compound 50], in assay [1], the “(%) inhibition of MIF nuclease activity” value came out at 18.0%. Besides, the “(%) inhibition of cell death” value in assay [2] was 56.4%.

Consider `COc1ccc(CC[C@H]2OC(=O)[C@@H]3CCCCN3C(=O)C(=O)C(C)(C)COC(=O)C=CCCN(C)C(=O)[C@@H](CC(C)C)NC(=O)[C@H](COC(C)(C)C)N(C)C(=O)C(c3ccccc3)NC(=O)[C@H](C)N(C)C(=O)COc3cccc2c3)cc1OC` (stereo partly drawn) [compound 52], for which, in assay [1], the “(%) inhibition of MIF nuclease activity” value is 9.9%. For the same molecule, in assay [2], the “(%) inhibition of cell death” value was 61.0%.

For the molecule `COc1ccc(CC[C@H]2OC(=O)[C@@H]3CCCCN3C(=O)C(=O)C(C)(C)COC(=O)C=CCCN(C)C(=O)[C@H](Cc3ccccc3)NC(=O)[C@H](COC(C)(C)C)N(C)C(=O)C(c3ccccc3)NC(=O)[C@H](C)N(C)C(=O)COc3cccc2c3)cc1OC` (stereo partly drawn) [compound 53], in assay [1], the “(%) inhibition of MIF nuclease activity” value is recorded as 14.1%. The “(%) inhibition of cell death” value in assay [2] was 58.3%.

For `COc1ccc(CC[C@H]2OC(=O)[C@@H]3CCCCN3C(=O)C(=O)C(C)(C)COC(=O)C=CCCN(C)C(=O)[C@@H](Cc3ccccc3)NC(=O)[C@H](COC(C)(C)C)N(C)C(=O)C(c3ccccc3)NC(=O)[C@H](C)N(C)C(=O)COc3cccc2c3)cc1OC` (stereo partly drawn) [compound 54], in assay [1], the “(%) inhibition of MIF nuclease activity” value was 15.9%. Moreover, the “(%) inhibition of cell death” value in assay [2] is recorded as 56.0%.

`COc1ccc(CC[C@H]2OC(=O)[C@@H]3CCCCN3C(=O)C(=O)C(C)(C)COC(=O)C=CCCN(C)C(=O)[C@H](Cc3ccc(F)cc3)NC(=O)[C@H](COC(C)(C)C)N(C)C(=O)C(c3ccccc3)NC(=O)[C@H](C)N(C)C(=O)COc3cccc2c3)cc1OC` (stereo partly drawn) [compound 55]: the “(%) inhibition of MIF nuclease activity” value in assay [1] was determined as 13.6%. Besides, the “(%) inhibition of cell death” value in assay [2] is listed as 59.9%.

In the case of `COc1ccc(CC[C@H]2OC(=O)[C@@H]3CCCCN3C(=O)C(=O)C(C)(C)COC(=O)C=CCCN(C)C(=O)[C@H](CC3CCCCC3)NC(=O)[C@H](COC(C)(C)C)N(C)C(=O)C(c3ccccc3)NC(=O)[C@H](C)N(C)C(=O)COc3cccc2c3)cc1OC` (stereo partly drawn) [compound 57], the “(%) inhibition of MIF nuclease activity” value in assay [1] is reported as 18.4%. Also, the “(%) inhibition of cell death” value in assay [2] was determined as 59.3%.

With `COc1ccc(CC[C@H]2OC(=O)[C@@H]3CCCCN3C(=O)C(=O)C(C)(C)COC(=O)C=CCCN(C)C(=O)[C@H](Cc3ccc4ccccc4c3)NC(=O)[C@H](COC(C)(C)C)N(C)C(=O)C(c3ccccc3)NC(=O)[C@H](C)N(C)C(=O)COc3cccc2c3)cc1OC` (stereo partly drawn) [compound 58], the “(%) inhibition of MIF nuclease activity” value in assay [1] is on record as 16.5%. Further, the “(%) inhibition of cell death” value in assay [2] was found to be 56.1%.

In the case of `COc1ccc(CC[C@H]2OC(=O)[C@@H]3CCCCN3C(=O)C(=O)C(C)(C)COC(=O)C=CCCN(C)C(=O)[C@H](C(C)C)NC(=O)[C@H](COC(C)(C)C)N(C)C(=O)C(c3ccccc3)NC(=O)[C@H](C)N(C)C(=O)COc3cccc2c3)cc1OC` (stereo partly drawn) [compound 59], the “(%) inhibition of MIF nuclease activity” value in assay [1] came out at 13.3%. The “(%) inhibition of cell death” value in assay [2] amounted to 58.9%.

Take `COc1ccc(CC[C@H]2OC(=O)[C@@H]3CCCCN3C(=O)C(=O)C(C)(C)COC(=O)C=CCCN(C)C(=O)[C@H](c3ccccc3)NC(=O)[C@H](COC(C)(C)C)N(C)C(=O)C(c3ccccc3)NC(=O)[C@H](C)N(C)C(=O)COc3cccc2c3)cc1OC` (stereo partly drawn) [compound 60]: in assay [1], the “(%) inhibition of MIF nuclease activity” value is on record as 59.4%. Also, the “(%) inhibition of cell death” value in assay [2] came to 55.4%.

In the case of `COc1ccc(CC[C@H]2OC(=O)[C@@H]3CCCCN3C(=O)C(=O)C(C)(C)COC(=O)C=CCCN(C)C(=O)CNC(=O)[C@H](Cc3ccccc3)N(C)C(=O)[C@@H](C)NC(=O)CN(C)C(=O)COc3cccc2c3)cc1OC` [compound 61], in assay [1], the “(%) inhibition of MIF nuclease activity” value was 19.2%. Moreover, the “(%) inhibition of cell death” value in assay [2] was 53.8%.

With `COc1ccc(CC[C@H]2OC(=O)[C@@H]3CCCCN3C(=O)C(=O)C(C)(C)COC(=O)C=CCCN(C)C(=O)[C@H](C)NC(=O)[C@H](Cc3ccccc3)N(C)C(=O)[C@@H](C)NC(=O)CN(C)C(=O)COc3cccc2c3)cc1OC` [compound 62], in assay [1], the “(%) inhibition of MIF nuclease activity” value came out at 13.1%. In assay [2], the “(%) inhibition of cell death” value came out at 53.7%.

`CCC[C@@H]1NC(=O)[C@H](Cc2ccccc2)N(C)C(=O)[C@@H](C)NC(=O)CN(C)C(=O)COc2cccc(c2)[C@@H](CCc2ccc(OC)c(OC)c2)OC(=O)[C@@H]2CCCCN2C(=O)C(=O)C(C)(C)COC(=O)C=CCCN(C)C1=O` [compound 64]: in assay [1], the “(%) inhibition of MIF nuclease activity” value was found to be 27.2%. The “(%) inhibition of cell death” value in assay [2] was 52.3%.

For the origin of these results see patent US20220372014A1, “NEUROPROTECTIVE COMPOUNDS AND METHODS OF USE THEREOF” (The Johns Hopkins University, priority 2019, published 2022).
